Assay results reported in US10543212B2, “Substituted amines for treating cardiac diseases” (Cardurion Pharmaceuticals, LLC, priority 2017, dated 2020).
Like-named read-outs stand apart in the source and are kept apart here.

Columns and labels:
[1] = system: phosphorylation of CaMKII-specific site of phospholamban (Thr17, PLN) in the heart; experiment: In vivo cardiac CaMKII inhibition (P-PLN Thr17 in rat left ventricle, Western blotting); details: po, 30 mg/kg p.o., male SD rat left ventricle, vs vehicle-treated group, read-out: Reduction rate of P-PLN
Procedure: To evaluate potency of test compounds to inhibit cardiac CaMKII kinase in vivo, phosphorylation levels of CaMKII-specific sites of phospholamban (Thr17, PLN) were measured in the heart of rats administered with test compounds at various doses.
Test compounds were suspended in 0.5% [w/v] methylcellulose/water solution and administered (10 or 30 mg/kg) to male CD (SD) IGS rat (6-8 weeks old, n=4) by the p.o. route (5 mL/kg). At 2-4 hours after the administration, rats were sacrificed and the hearts were harvested. After washing the isolated hearts with ice-cold saline, connective tissues were removed on ice, and the isolated left ventricle were frozen into liquid nitrogen gas and stored at −80° C.
The left ventricle samples were homogenized in RIPA-buffer containing phosphatase inhibitors and protease inhibitors. Samples were analyzed by Western blotting using anti-P-PLN (Thr17, Santa Cruz Biotechnology, sc-17024-R) antibody. The band intensities were quantified using an imaging system and were normalized relative to the vehicle-treated group.

[2] = molecular target: T1, Full-length, GST-tagged, human CaMKIIδ (Homo sapiens, UniProt Q13557); experiment: CaMKIIδ binding assay (TR-FRET with BODIPY-labeled probe ligand); details: CaMKIIδ binding assay
T1 construct: Full-Length, Glutathione-S-Transferase(GST)-Tagged, Human CaMKIIδ was purchased from Carna Biosciences; purchased Carna Biosciences 02-111
Method in brief: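 TR-FRET probe-displacement binding: 0.5 nM GST-CaMKIIδ with 10 μg/mL calmodulin, 1 mM CaCl2, 0.21 nM Tb-anti-GST Ab and 300 nM BODIPY probe in HEPES pH 7.6 buffer. Eight-point 4-fold dilutions, 1 hr at room temperature. IC50 from logistic fit; 100% inhibition defined by 3 μM parent compound.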

[3] = Table 2, activity given as class A/B/C

T1 sequence (Q13557 1-478 isoform Q13557-12): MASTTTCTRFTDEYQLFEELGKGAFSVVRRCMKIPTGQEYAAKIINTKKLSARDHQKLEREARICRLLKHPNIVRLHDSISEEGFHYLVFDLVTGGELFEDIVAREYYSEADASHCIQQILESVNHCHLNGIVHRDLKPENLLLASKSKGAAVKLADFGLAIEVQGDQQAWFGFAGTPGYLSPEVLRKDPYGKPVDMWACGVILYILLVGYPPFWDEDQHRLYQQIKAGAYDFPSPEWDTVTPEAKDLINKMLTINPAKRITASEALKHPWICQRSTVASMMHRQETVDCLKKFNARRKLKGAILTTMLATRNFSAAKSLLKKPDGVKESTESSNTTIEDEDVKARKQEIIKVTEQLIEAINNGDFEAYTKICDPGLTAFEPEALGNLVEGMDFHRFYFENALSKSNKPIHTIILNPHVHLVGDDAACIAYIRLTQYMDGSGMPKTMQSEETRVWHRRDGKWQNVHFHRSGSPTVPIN

| Compound | inhibition in vivo at 30 mg/kg ([1]; 4 hr after administration) [%] | IC50 ([2]; activity class per Table 2) [µM] | inhibition in vivo at 30 mg/kg ([1]; 2 hr after administration) [%] | IC50 [2, 3] [µM] | IC50 ([2]; results of Table 2) [µM] |
| --- | --- | --- | --- | --- | --- |
| C[C@@H](Cn1cnnn1)Oc1cc(-c2cnc(Nc3cn(C4CC5(C4)CN(CC(C)(C)O)C5)nc3OCC(F)(F)F)nc2)ccc1Cl [Example 946, (S)-1-(6-(4-((5-(3-((1-(1H-tetrazol-1-yl)propan-2-yl)oxy)-4-chlorophenyl)pyrimidin-2-yl)amino)-3-(2,2,2-trifluoroethoxy)-1H-pyrazol-1-yl)-2-azaspiro[3.3]heptan-2-yl)-2-methylpropan-2-ol] | > 50 | < 0.01 |  |  |  |
| C[C@@H](Cn1cnnn1)Oc1cc(-c2cnc(Nc3cn(C4CC5(C4)CN(C4CCOCC4)C5)nc3OCC(F)(F)F)nc2)ccc1Cl [Example 795, (S)-5-(3-((1-(1H-tetrazol-1-yl)propan-2-yl)oxy)-4-chlorophenyl)-N-(1-(2-(tetrahydro-2H-pyran-4-yl)-2-azaspiro[3.3]heptan-6-yl)-3-(2,2,2-trifluoroethoxy)-1H-pyrazol-4-yl)pyrimidin-2-amine] |  |  | > 50 | < 0.01 |  |
| C[C@@H](Cn1cnnn1)Oc1cc(-c2cnc(Nc3cn(C4CC5(C4)CN(C4CCOCC4)C5)nc3C(F)(F)F)nc2)ccc1Cl [Example 831, (S)-5-(3-((1-(1H-tetrazol-1-yl)propan-2-yl)oxy)-4-chlorophenyl)-N-(1-(2-(tetrahydro-2H-pyran-4-yl)-2-azaspiro[3.3]heptan-6-yl)-3-(trifluoromethyl)-1H-pyrazol-4-yl)pyrimidin-2-amine] | > 50 |  |  | < 0.01 |  |
| CC(=O)OC(C)(C)CN1CC2(CC(n3cc(Nc4ncc(-c5ccc(Cl)c(O[C@@H](C)Cn6cnnn6)c5)cn4)c(OCC(F)(F)F)n3)C2)C1 [Example 951, 1-[6-(4-{[5-(4-chloro-3-{[(2S)-1-(1H-tetrazol-1-yl)propan-2-yl]oxy}phenyl)pyrimidin-2-yl]amino}-3-(2,2,2-trifluoroethoxy)-1H-pyrazol-1-yl)-2-azaspiro[3.3]heptan-2-yl]-2-methylpropan-2-yl acetate] | > 50 | < 0.01 |  |  |  |
| C[C@@H](Cn1cnnn1)Oc1cc(-c2cnc(Nc3cn(C4CCN(C5CCOCC5)CC4)nc3C(F)(F)F)nc2)ccc1Cl [Example 484, (S)-5-(3-((1-(1H-tetrazol-1-yl)propan-2-yl)oxy)-4-chlorophenyl)-N-(1-(1-(tetrahydro-2H-pyran-4-yl)piperidin-4-yl)-3-(trifluoromethyl)-1H-pyrazol-4-yl)pyrimidin-2-amine] |  |  | > 50 |  | < 0.01 |
